Experimental data taken from patent US20130143929A1, “FUNGICIDAL IMIDAZOLES” (EI DU PONT DE NEMOURS AND COMPANY, priority 2010, published 2013).
Marks after values point to notes of the source that are not given here.

Tests used:
Assay type in all cases: in vivo
[1] = system: Puccinia recondite f. sp. tritici (the causal agent of wheat leaf rust); test: Test A: wheat leaf rust, preventive spray on wheat seedlings, visual disease rating; conditions: wheat leaf rust, preventive spray on wheat seedlings
Excerpt: (§1) General protocol for preparing test suspensions for Tests A-D: the test compounds were first dissolved in acetone in an amount equal to 3% of the final volume and then suspended at the desired concentration (in ppm) in acetone and purified water (50/50 mix by volume) containing 250 ppm of the surfactant Trem® 014 (polyhydric alcohol esters). The resulting test suspensions were then used in Tests A-D. Spraying a 200 ppm test suspension to the point of run-off on the test plants was the equivalent of a rate of 800 g/ha.
The test suspension was sprayed to the point of run-off on wheat seedlings. The following day the seedlings were inoculated with a spore suspension of Puccinia recondite f. sp. tritici (the causal agent of wheat leaf rust) and incubated in a saturated atmosphere at 20° C. for 24 h, and then moved to a growth chamber at 20° C. for 7 days, after which time visual disease ratings were made.
(§2) Results for Tests A-E are given in Table A. In the Table, a rating of 100 indicates 100% disease control and a rating of 0 indicates no disease control (relative to the controls). A dash (—) indicates no test results. An asterisk “*” next to the rating value indicates a 40 ppm test suspension was used.

[2] = system: Septoria tritici (the causal agent of wheat leaf blotch); test: Test B: wheat leaf blotch, preventive spray on wheat seedlings, visual disease rating; conditions: wheat leaf blotch, preventive spray on wheat seedlings
Excerpt: as §1
(§3) The test suspension was sprayed to the point of run-off on wheat seedlings. The following day the seedlings were inoculated with a spore suspension of Septoria tritici (the causal agent of wheat leaf blotch) and incubated in a saturated atmosphere at 24° C. for 48 h, and then moved to a growth chamber at 20° C. for 19 days, after which time visual disease ratings were made.
as §2

[3] = system: Blumeria graminis f. sp. tritici (also known as Erysiphe graminis f. sp. tritici, the causal agent of wheat powdery mildew); test: Test D: wheat powdery mildew, preventive spray on wheat seedlings, visual disease rating; conditions: wheat powdery mildew, preventive spray on wheat seedlings
Excerpt: as §1
The test suspension was sprayed to the point of run-off on wheat seedlings. The following day the seedlings were inoculated with a spore dust of Blumeria graminis f. sp. tritici, (also known as Erysiphe graminis f. sp. tritici, the causal agent of wheat powdery mildew) and incubated in a growth chamber at 20° C. for 8 days, after which time visual disease ratings were made.
as §2

[4] = system: Botrytis cinerea (the causal agent of tomato Botrytis); test: Test C: tomato Botrytis, preventive spray on tomato seedlings, visual disease rating; conditions: tomato Botrytis, preventive spray on tomato seedlings
Excerpt: as §1
as §3, with “tomato” for “wheat”, “Botrytis cinerea” for “Septoria tritici”, “tomato Botrytis)” for “wheat leaf blotch)”, “20°” for “24°”, “24°” for “20°”, “3” for “19”
as §2

[5] = asterisk: 40 ppm test suspension
[6] = no asterisk (standard test suspension concentration, not 40 ppm)

Row | Structure (SMILES) | Test A rating (100 = 100% disease control, 0 = no disease control relative to the controls) [1, 5] | Test B rating (100 = 100% disease control, 0 = no disease control relative to the controls) [2, 5] | Test D rating (100 = 100% disease control, 0 = no disease control relative to the controls) [3, 5] | Test C rating (100 = 100% disease control, 0 = no disease control relative to the controls) [4, 5] | Test A rating (100 = 100% disease control, 0 = no disease control relative to the controls) [1, 6] | Test B rating (100 = 100% disease control, 0 = no disease control relative to the controls) [2, 6] | Test D rating (100 = 100% disease control, 0 = no disease control relative to the controls) [3, 6] | Test C rating (100 = 100% disease control, 0 = no disease control relative to the controls) [4, 6]
1 | Cc1nc(Br)c(C(O)c2ccc(F)cc2Cl)n1-c1ccc(F)cc1F (racemic) [compound 240] | 99* % | 100* % | 89* % | 99* % |  |  |  | 
2 | Cc1nc(Cl)c(C(O)c2ccc(F)cc2Cl)n1-c1ccc(F)cc1F (racemic) [compound 241] | 100* % | 100* % | 21* % | 99* % |  |  |  | 
3 | Cc1ncc(C(O)c2ccc(Cl)cc2)n1-c1ccc(Cl)cc1Cl (racemic) [compound 242] | 94* % | 50* % | 0* % | 29* % |  |  |  | 
4 | Cc1nc(Br)c(C(O)c2ccc(Cl)cc2)n1-c1ccc(Cl)cc1Cl (racemic) [compound 243] | 98* % | 95* % | 79* % | 91* % |  |  |  | 
5 | Cc1nc(Cl)c(C(O)c2ccc(Cl)cc2)n1-c1ccc(Cl)cc1Cl (racemic) [compound 244] | 98* % | 100* % | 21* % | 78* % |  |  |  | 
6 | Cc1nc(C)n(-c2c(F)cc(F)cc2Cl)c1C(O)c1ccc(F)cc1F (racemic) [compound 245] | 100* % | 100* % | 84* % | 91* % |  |  |  | 
7 | Cc1nc(C)n(-c2c(F)cc(Cl)cc2F)c1C(O)c1ccc(F)cc1F (racemic) [compound 246] | 100* % | 100* % | 0* % | 37* % |  |  |  | 
8 | Cc1nc(Br)n(-c2c(F)cc(F)cc2Cl)c1C(O)c1ccc(F)cc1F (racemic) [compound 250] | 100* % | 100* % | 100* % | 100* % |  |  |  | 
9 | Cc1ncc(C(O)c2ccc(F)cc2Br)n1-c1ccc(F)cc1Cl (racemic) [compound 251] |  |  |  |  | 100% | 93% | 0% | 98%
10 | Cc1nc(Br)c(C(O)c2ccc(F)cc2Br)n1-c1ccc(F)cc1Cl (racemic) [compound 253] |  |  |  |  | 100% | 100% | 27% | 100%
11 | COc1ccc(C(O)c2c(Br)nc(C)n2-c2ccc(F)cc2Cl)c(Cl)c1 (racemic) [compound 254] |  |  |  |  | 100% | 100% | 83% | 100%
